Source: patent US11591404B2, “Treatment of cancer using a CD123 chimeric antigen receptor” (Novartis AG, priority 2014, dated 2023)
Entries after “also recorded” stand apart in the source; their conditions may differ.

Assays:
huCAR19 CAR T cells = experiment: CAR T cell expansion in vivo with RAD001 (FACS); design: species or system NSG mice; settings: lowest doses of RAD001
Method: CAR T cell dosing: Mice were administered 5×10^6 CAR T cells 7 days after tumor implantation. Cells were partially thawed in a 37 degree Celsius water bath and then completely thawed by the addition of 1 ml of cold sterile PBS to the tube containing the cells. The thawed cells were transferred to a 15 ml falcon tube and adjusted to a final volume of 10 mls with PBS. The cells were washed twice at 1000 rpm for 10 minutes each time and then counted on a hemocytometer. T cells were then resuspended at a concentration of 50×10^6 CAR T cells per ml of cold PBS and kept on ice until the mice were dosed. The mice were injected intravenously via the tail vein with 100 μl of the CAR T cells for a dose of 5×10^6 CAR T cells per mouse. Eight mice per group were treated either with 100 μl of PBS alone (PBS), or humanized CD19 CAR T cells.
(§1) RAD001 dosing: A concentrated micro-emulsion of 50 mg equal to 1 mg RAD001 was formulated and then resuspended in D5W (dextrose 5% in water) at the time of dosing. Mice were orally dosed daily (via oral gavage) with 200 μl of the desired doses of RAD001.
Based on these doses, huCAR19 CAR T cells were dosed with and without RAD001 to determine the proliferative ability of these cells. The highest dose used was 3 mg/kg based on the levels of RAD001 in the blood 24 hours after dosing. […] Mice were monitored via FACS for T cell expansion.

NALM6-luc tumors = experiment: NALM6-luc tumor growth under daily oral RAD001; format: in vivo, NSG mice; settings: daily oral dosing of RAD001 alone
Method: NALM6-luc cells: The NALM6 human acute lymphoblastic leukemia (ALL) cell line was developed from the peripheral blood of a patient with relapsed ALL. The cells were then tagged with firefly luciferase. These suspension cells grow in RPMI supplemented with 10% heat inactivated fetal bovine serum.
Mice: 6 week old NSG (NOD.Cg-Prkdc^scidIl2rg^tmIWjl/SzJ) mice were received from the Jackson Laboratory (stock number 005557).
Tumor implantation: NALM6-luc cells were grown and expanded in vitro in RPMI supplemented with 10% heat inactivated fetal bovine serum. The cells were then transferred to a 15 ml conical tube and washed twice with cold sterile PBS. NALM6-luc cells were then counted and resuspended at a concentration of 10×10^6 cells per milliliter of PBS. The cells were placed on ice and immediately (within one hour) implanted in the mice. NALM6-luc cells were injected intravenously via the tail vein in a 100 μl volume, for a total of 1×10^6 cells per mouse.
as §1

[1] = tested on: CAR-expressing, transduced T cells; experiment: Proliferation of CARTs co-cultured with Nalm-6 cells in the presence of RAD001, 4 days; format: cell-based; settings: low doses of RAD001, cell culture, 4 days of co-culture
Method: CARTs were co-cultured with Nalm-6 cells in the presence of different concentrations of RAD001. The number of CAR-positive CD3-positive T cells (black) and total T cells (gray) was assessed after 4 days of co-culture.

[2] = PK analysis of RAD001 in tumor bearing mice; format: in vivo, NSG mice
Method: as §1
PK analysis: Mice were dosed daily with RAD001 starting 7 days post tumor implantation. Dosing groups were as follows: 0.3 mg/kg, 1 mg/kg, 3 mg/kg, and 10 mg/kg. Mice were bled on days 0 and 14 following the first and last dose of RAD001, at the following time points for PK analysis: 15 minutes, 30 minutes, 1 hour, 2 hours, 4 hours, 8 hours, 12 hours, and 24 hours.

[3] = tested on: humanized CD19 CART cells; experiment: In vivo proliferation of humanized CD19 CART cells with and without RAD001 dosing; settings: RAD001 0.003 mg/kg daily with huCTL019
Method: Circles denote PBS; squares denote huCTL019; triangles denote huCTL019 with 3 mg/kg RAD001; inverted triangles denote huCTL019 with 0.3 mg/kg RAD001; diamonds denote huCTL019 with 0.03 mg/kg RAD001; and circles denote huCTL019 with 0.003 mg/kg RAD001.

[4] = tested on: huCART19 cells cultured with Nalm-6; experiment: CART proliferation in 4 day co-culture with RAD001; format: cell-based, human; settings: 0.0032 and 0.016 nM RAD001
Method: To evaluate the functionality of CARTs, the T cells are thawed and counted, and viability is assessed by Cellometer. The number of CAR-positive cells in each culture is normalized using non-transduced T cells (UTD). The impact of RAD001 on CARTs was tested in titrations with RAD001, starting at 50 nM. The target cell line used in all co-culture experiments is Nalm-6, a human pre-B cell acute lymphoblastic leukemia (ALL) cell line expressing CD19 and transduced to express luciferase.
For measuring the proliferation of CARTs, T cells are cultured with target cells at a ratio of 1:1. The assay is run for 4 days, when cells are stained for CD3, CD4, CD8 and CAR expression. The number of T cells is assessed by flow cytometry using counting beads as reference.

[5] = tested on: luciferase-expressing human AML cell lines (MOLM14, MOLM13, U937) or primary AML specimens; experiment: Human AML xenograft models, T cell termination strategies; format: in vivo, mice; settings: for elimination of CD123-redirected CAR T cells: alemtuzumab 1 or 5 mg/kg IP, rituximab 10 mg/kg IP; for AML proliferation, antibody alone: non-CART123-treated xenograft models vs AML-only controls
Description: Three termination strategies in human AML xenograft models were examined: (1) T cell ablation with the anti-CD52 antibody alemtuzumab after treatment with 1×10^5-1×10^6 T cells lentivirally-transduced with anti-CD123-41BB-CD3zeta CART123, (2) T cell ablation with the anti-CD20 antibody rituximab after treatment with 1×10^5-1×10^6 CART123 engineered to co-express CD20 (CART123/CD20), and (3) treatment with “biodegradable” anti-CD123 mRNA-electroporated CAR T cells (RNA-CART123). Mice engrafted with luciferase-expressing human AML cell lines (MOLM14, MOLM13, U937) or primary AML specimens (n=3) were treated with CD123-redirected CAR T cells as above. The CD123 CAR construct utilized for this experiment is the 1172 construct (SEQ ID NO: 707), and were administered to the mice at week 1. For T cell depletion studies, alemtuzumab 1 or 5 mg/kg was injected intraperitoneally (IP) at week 2, week 3, or week 4 (e.g., 1, 2, or 3 weeks post-CART123) to determine optimal dosing and timing of T cell ablation. In subsequent studies, rituximab 10 mg/kg was injected IP 4 weeks after CART123/CD20, or 1×10^7 RNA-CART123 was injected intravenously at 5, 9, and 16 days after AML engraftment. Mice were followed by weekly bioluminescent imaging and/or quantitative flow cytometry analyses of blood, spleen, and/or bone marrow.

CART123 P2A CD20 cells = experiment: Rituximab complement dependent cytotoxicity (15% rabbit complement); format: cell-based
Method: The mechanism by which the CART123P2ACD20 cell depletion is mediated was investigated. CART123 P2A CD20 cells were incubated with rituximab at different concentrations 0 μg/ml, 1 μg/ml, 10 μg/ml and 100 μg/ml, in the presence of 15% rabbit complement. […] CART123 P2A CD20 cell depletion is mediated by complement dependent cytotoxicity.

CART123P2A CD20 cells = experiment: Rituximab-mediated cytotoxicity, T cell depletion; format: cell-based; settings: 100 ug/ml, 48 hours of incubation
Method: Rituximab-mediated cytotoxicity was next assessed for the CART123 P2A CD20 cells. CART123 and CART123 P2A CD20 were incubated with Rituximab at various concentrations, 0 μg/ml, 1 μg/ml, 10 μg/ml and 100 μg/ml. Cells were harvested at 0, 4, 12, and 48 hours, and stained for CD3. The percentage of T cell depletion was computed.

AML290 cells = experiment: Pediatric patient-derived xenograft model; format: in vivo, mice
Method: Alemtuzumab treatment was also examined in a second in vivo model, a pediatric patient-derived xenograft model. In this model, mice were injected with AML290 cells. Six weeks after AML engraftment, the mice were administered saline, untransduced T cells, or CART123 cells (represented at week 0). Alemtuzumab was administered at 5 mg/kg to a subset of the mice receiving CART123 cells at week 4. […] Analysis of AML present in different organs of the xenografts after CART123 dosing was determined by flow cytometry.

r/r B-ALL = settings: cited from earlier work

## CO[C@H]1C[C@@H]2CC[C@@H](C)[C@@](O)(O2)C(=O)C(=O)N2CCCC[C@H]2C(=O)O[C@H]([C@H](C)C[C@@H]2CC[C@@H](OCCO)[C@H](OC)C2)CC(=O)[C@H](C)/C=C(\C)[C@@H](O)[C@@H](OC)C(=O)[C@H](C)C[C@H](C)/C=C/C=C/C=C/1C [RAD001, (1R,9S,12S,15R,16E,18R,19R,21R,23 S,24E,26E,28E,30S,32S,35R)-1,18-dihydroxy-12-{(1R)-2-[(1S,3R,4R)-4-(2-hydroxyethoxy)-3-methoxycyclohexyl]-1-methylethyl}-19,30-dimethoxy-15,17,21,23,29,35-hexamethyl-11,36-dioxa-4-aza-tricyclo[30.3.1.04,9]hexatriaconta-16,24,26,28-tetraene-2,3,10,14,20-pentaone]
huCAR19 CAR T cells
  proliferation of the CAR T cells in vivo: enhanced proliferation of the CAR T cells
NALM6-luc tumors
  growth of NALM6-luc tumors: did not have an impact on the growth of NALM6-luc tumors
[1]
  proliferation of CAR-expressing, transduced T cells: enhanced
[2]; 24 hours after the final dose
  concentration of RAD001: above 10 nM
[2]; NSG, mouse, blood, oral, 24 hours after dosing, 0.3 mg/kg, day 0 and day 14, read-out: RAD001 concentrations in the blood
  concentration at 24 h: > 10 nM
[2]; tumor bearing mice
  stability in the blood: fairly stable in the blood
[3]
  CART cell proliferation in vivo: enhancement in CART cell proliferation
[4]
  proliferation of huCART19 cells: proliferation was higher than observed without the addition of RAD001

## Rituximab: anti-CD20 antibody
[5]
  elimination of CD123-redirected CAR T cells: rapidly eliminated T cells while preserving leukemia remission; also recorded: completely eliminated CD123-redirected CAR T cells
  AML proliferation, antibody alone: did not inhibit AML proliferation
CART123 P2A CD20 cells; Rituximab 100 ug/ml
  cell depletion with complement: depletion of the majority of CART123 P2A CD20 cells after 4 hours of incubation
CART123 P2A CD20 cells; rituximab 1 ug/ml or 10 ug/ml
  cell depletion with complement: depletion of the majority of CART123 P2A CD20 cells after 12 hours of incubation
CART123P2A CD20 cells
  T cell depletion: direct cytotoxicity

## alemtuzumab: anti-CD52 antibody
[5]
  elimination of CD123-redirected CAR T cells: rapidly eliminated CART123 cells
  AML proliferation, antibody alone: did not inhibit AML proliferation
[5]; listed as Alemtuzumab
  elimination of CD123-redirected CAR T cells: completely eliminated CD123-redirected CAR T cells
[5]; alemtuzumab at week 3 or week 4 vs week 2
  overall survival by timing of ablation: improved survival
AML290 cells; AML290
  AML cells in spleen and bone marrow (flow cytometry): sustained ablation of AML cells in the spleen
  tumor progression / remission: remained in remission
AML290 cells; alemtuzumab 5 mg/kg at week 4
  elimination of CART123 T cells in the peripheral blood: completely eliminate CART123 T cells in the peripheral blood

## blinatumomab: bi-specific anti-CD19/CD3 antibody
r/r B-ALL
  share of relapses that are CD19-negative: about 30%
